According to patent US20250281649A1, “PROBE DIRECTED TO ENZYME ALDH1A3 AND USE THEREOF IN THE DIAGNOSIS OF GLIOBLASTOMA” (Universita' Degli Studi Del Piemonte Orientale "A. Avogadro", priority 2021, published 2025):

Experiments:
[1] = test system: human foetal astrocytes (hASTRO, ALDH1A1+); experiment: Confocal fluorescence of probes in cell lines; assay type: cell-based; conditions: 10 μM to 100 nM
Procedure: (§1) All 3 enzymes belonging to the subfamily 1A of aldehyde dehydrogenases were expressed recombinantly in bacterial cells and purified to homogeneity. The pure enzymes were then used to study the interaction with the molecules according to the invention, using various in vitro biochemical assays. In particular, the affinity for the isoenzymes of the selected molecules was measured through the use of a TECAN SPARK and a TECAN SUNRISE. Fluorescence assays were performed in the presence of different protein concentrations and the activity assays were conducted by measuring NAD^+ consumption. According to their specific activity, all molecules were characterized by values of KD, KM, Ki and IC50, showing a net selectivity in specifically binding the ALDH1A3 enzyme. The probes having curcumin and recognizing the ALDH1A3 enzyme were tested in a cellular context, using four different cell lines classified by the presence or absence of the isoform studied: human glioblastoma line (U87MG, ALDH1A3 positive), embryonic kidney cell line (HEK293T, ALDH1A2 positive), human astrocyte line (hAstro, ALDH1A1 positive) and a breast cancer line (4T1, ALDHIA negative). […] The binding ability of the probes to these cell lines was also verified and confirmed by flow cytometry.
(§2) Human U87MG glioblastoma were used as ALDH1A3+ cell lines, HEK293T as ALDH1A2+ cell line, human foetal astrocytes (hASTRO) as ALDH1A1+ cell line and 4T1 mammary carcinoma as triple negative ALDHIA subfamily (checked with Western Blot analysis and RT-PCR). All these cell lines were incubated with Probe 14 and 13 at different concentrations (from 10 μM to 100 nM). At all these concentrations we observed a selectivity of probe 14 and 13 on U87MG cells after 2 h, that appeared to be cytoplasmic, no signal has been verified in HEK293T, hASTRO and 4T1 cell lines. Moreover, we incubated the two probes with cells and analyzed with FACS and we observed a significant positivity in U87MG cells, too.

[2] = test system: 4T1 mammary carcinoma (triple negative ALDH1A subfamily); experiment: Confocal fluorescence of probes in cell lines; assay type: cell-based; conditions: 4T1, 10 μM to 100 nM
Procedure: as §1, §2

HEK293T (ALDH1A2+) = experiment: Confocal fluorescence of probes in cell lines; assay type: cell-based; conditions: 10 μM to 100 nM
Procedure: as §1, §2

GL261 cells = experiment: Penetration into GL261 cells in vitro; assay type: cell-based, mouse
Excerpt: We used in vitro and in vivo cells from a mouse high grade glioma cell line, GL261, Briefly, twenty-four 2- to 3-month-old female C57BIC mice were stereotactically implanted under deep general anesthesia (isoflurane supplemented with nitrous oxide) with 1×10^5 GL261 glioblastoma cells. The cells were stereotactically inoculated through a burr hole by a Hamilton syringe into the left striatum (coordinates: 1 mm anteroposterior and 1 mm lateral from bregma, at a depth of 3 mm). All experimental procedures were conducted in accordance with the European Communities Council Directive of 24 Nov. 1986 (86/609 EEC), Recommendation 18/06/2007, Dir. 2010/63/UE, and the Italian law for care and use of experimental animals (DL116/92) and were approved by the Italian Ministry of Health (prot. E669C.15) and the Bioethical Committee of the University of Turin. All animals were housed under a 12-hour light-dark cycle in an environmentally controlled room. All experiments were designed to minimize the numbers of animals used and their discomfort. In each experiment, animals with tumors were allocated to two groups and i.p. injected with probe 14 or probe 13. All drugs were administered intraperitoneally, and treatments were started days 6 after tumor implantation. […] Quantitative and phenotypic evaluations were made on images acquired with a Leica TCS SP5 confocal microscope.

ALDH1A3 = biological target: T1, ALDH1A3 (Homo sapiens, UniProt P47895); experiment: Ki evaluation, competitive inhibition vs acetaldehyde, NADH formation; assay type: biochemical; conditions: competitive vs acetaldehyde 1-20 mM
T1 construct: His-tag; made in house; host or cells: bacterial cells
T1 sequence (P47895 1-512): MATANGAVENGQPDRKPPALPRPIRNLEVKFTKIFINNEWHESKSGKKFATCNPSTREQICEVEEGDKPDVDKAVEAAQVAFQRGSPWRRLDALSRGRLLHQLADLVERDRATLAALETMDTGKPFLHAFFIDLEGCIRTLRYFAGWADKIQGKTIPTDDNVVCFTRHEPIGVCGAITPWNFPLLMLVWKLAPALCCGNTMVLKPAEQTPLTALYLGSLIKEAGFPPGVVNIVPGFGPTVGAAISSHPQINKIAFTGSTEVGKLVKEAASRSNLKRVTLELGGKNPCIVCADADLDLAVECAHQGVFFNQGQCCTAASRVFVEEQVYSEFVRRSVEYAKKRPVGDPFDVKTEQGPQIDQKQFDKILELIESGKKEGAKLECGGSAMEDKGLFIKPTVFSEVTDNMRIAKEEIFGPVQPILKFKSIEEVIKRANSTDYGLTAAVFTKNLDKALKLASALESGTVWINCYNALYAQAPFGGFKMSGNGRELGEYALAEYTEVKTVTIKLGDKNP
Procedure: A common protocol to express and purify all three members of the ALDHIA subfamily has been optimized. Briefly, induced cells, collected by centrifugation, were re-suspended in an appropriate volume of lysis buffer (50 mM Na2HPO4, 300 mM NaCl, 1 mM β-mercaptoethanol, 20 mM imidazole, pH 7.5) added of benzonase nuclease (250 U/μL) and Protease inhibitor cocktail from SIGMA. After ultracentrifugation, the clarified sample was purified by a His-tag affinity chromatography followed by size-exclusion chromatography, using an AKTA FPLC system, at 4° C. To evaluate the purity and homogeneity of the protein, after each purification step, eluted d fractions were analyzed by SDS-PAGE and the protein quantification was always determined by Bradford protein assay.
Ki evaluation: on a Tecan—SUNRISE, probe 13 was tested as a possible competitive inhibitor, at a variable concentration (200, 100, 50, 10, 1 and 0 μM). In the same plate, different the acetaldehyde was tested at concentrations (1, 2.5, 5, 10, 15 and 20 mM) to describe the competitive mechanism. The recipe of the buffer reaction was the same as described before. The analysis was conducted measuring the NADH formation, that has a specific absorbance wavelength (340 nm). The test was performed in triplicate only with the ALDH1A3.

Row | Ki (ALDH1A3) | SMILES | fluorescence signal in cells [1] | fluorescence signal in cells [2] | fluorescence signal in cells (HEK293T (ALDH1A2+)) | penetration into cells in vitro (GL261 cells)
1 |  | CCOC(=O)Cn1cc(COc2ccc(/C=C/C(O)=C/C(=O)/C=C/c3ccc(O)c(OC)c3)cc2OC)nn1 [Compound 14] | no signal | no signal | no signal | penetrates GL261 cells in vitro
2 | 900 nM | COc1cc(/C=C/C(=O)/C=C(O)/C=C/c2ccc(OCc3cn(CCOc4ccc(C=O)cc4)nn3)c(OC)c2)ccc1O [Compound 13] | no signal | no signal | no signal | 
